Experimental data reported in patent US9745291B2, “PRMT5 inhibitors containing a dihydro- or tetrahydroisoquinoline and uses thereof” (Epizyme, Inc., priority 2012, dated 2017).

Molecular target: PRMT5/MEP50 (Homo sapiens (Human), UniProt O14744)
Experiment: PRMT5 Biochemical Assay (PRMT5/MEP50 enzyme assay on peptide substrate, 3H-SAM Flashplate)
Details: PRMT5 biochemical assay; read-out: Biochemical IC50
Source text: S-adenosylmethionine (SAM), S-adenosylhomocysteine (SAH), bicine, KCl, Tween20, dimethylsulfoxide (DMSO), bovine skin gelatin (BSG), and Tris(2-carboxyethyl)phosphine hydrochloride solution (TCEP) were purchased from Sigma-Aldrich at the highest level of purity possible. ^3H-SAM was purchase from American Radiolabeled Chemicals with a specific activity of 80 Ci/mmol. 384-well streptavidin Flashplates were purchased from PerkinElmer.
Peptide representative of human histone H4 residues 1-15 was synthesized with a C-terminal linker-affinity tag motif and a C-terminal amide cap by 21st Century Biochemicals. […] The sequence was Ac-[…][K-Biot]-amide (SEQ ID NO.:3).
Full-length human MEP50 (NM_024102) clone was amplified from a human testis cDNA library incorporating a 5′ sequence encoding a 6-histidine tag (MHHHHHH)(SEQ ID NO.:5) fused directly to Arg 2 of MEP50. The amplified genes were sublconed into pENTR/D/TEV (Life Technologies) and subsequently transferred by Gateway™ attL×attR recombination to pDEST8 baculvirus expression vector (Life Technologies).
Recombinant baculovirus and Baculovirus-Infected Insect Cells (BIIC) were generated according to Bac-to-Bac kit instructions (Life Technologies) and Wasilko, 2006, respectively. Protein over-expression was accomplished by infecting exponentially growing Spodoptera frugiperda (SF9) cell culture at 1.2×10^6 cell/ml with a 5000 fold dilution of BIIC stock. Infections were carried out at 27° C. for 72 hours, harvested by centrifugation, and stored at −80° C. for purification.
Flag-PRMT5/6His-MeP50 was eluted with 300 mM Imidazole in the same buffer. […] Reference: Wasilko, D. J. and S. E. Lee: “TIPS: titerless infected-cells preservation and scale-up” Bioprocess J., 5 (2006), pp. 29-32.
General Procedure for PRMT5/MEP50 Enzyme Assays on Peptide Substrates.
The assays were all performed in a buffer consisting of 20 mM Bicine (pH=7.6), 1 mM TCEP, 0.005% BSG, and 0.002% Tween20, prepared on the day of use. Compounds in 100% DMSO (1 ul) were spotted into a polypropylene 384-well V-bottom plates (Greiner) using a Platemate Plus outfitted with a 384-channel head (Thermo Scientific). DMSO (1 ul) was added to Columns 11, 12, 23, 24, rows A-H for the maximum signal control and 1 ul of SAH, a known product and inhibitor of PRMT5/MEP50, was added to columns 11, 12, 23, 24, rows I-P for the minimum signal control. A cocktail (40 ul) containing the PRMT5/MEP50 enzyme and the peptide was added by Multidrop Combi (Thermo-Fisher). The compounds were allowed to incubate with PRMT5/MEP50 for 30 min at 25 degrees Celsius, then a cocktail (10 ul) containing ^3H-SAM was added to initiate the reaction (final volume=51 ul).

Chain of PRMT5/MEP50 (O14744 other isoform, or with tags, fused parts or gaps): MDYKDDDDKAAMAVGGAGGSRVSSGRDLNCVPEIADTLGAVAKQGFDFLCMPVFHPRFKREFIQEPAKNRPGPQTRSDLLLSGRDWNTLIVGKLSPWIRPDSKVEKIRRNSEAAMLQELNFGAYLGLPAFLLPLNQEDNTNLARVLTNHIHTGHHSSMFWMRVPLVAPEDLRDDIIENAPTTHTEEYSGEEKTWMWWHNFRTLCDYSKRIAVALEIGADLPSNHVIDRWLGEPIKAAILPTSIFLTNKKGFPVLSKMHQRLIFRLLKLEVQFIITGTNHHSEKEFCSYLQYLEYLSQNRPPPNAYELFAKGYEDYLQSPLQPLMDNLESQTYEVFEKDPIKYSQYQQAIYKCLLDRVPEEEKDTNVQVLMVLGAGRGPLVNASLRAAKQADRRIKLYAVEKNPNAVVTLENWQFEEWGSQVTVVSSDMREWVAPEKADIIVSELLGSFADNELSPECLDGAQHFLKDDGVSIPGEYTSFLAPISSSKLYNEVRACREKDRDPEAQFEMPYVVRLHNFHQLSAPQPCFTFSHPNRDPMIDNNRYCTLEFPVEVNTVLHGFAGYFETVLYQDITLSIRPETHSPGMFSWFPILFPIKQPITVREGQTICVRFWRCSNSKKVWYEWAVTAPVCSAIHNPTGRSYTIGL
Chain of PRMT5/MEP50 (Q9BQA1 other isoform, or with tags, fused parts or gaps partner): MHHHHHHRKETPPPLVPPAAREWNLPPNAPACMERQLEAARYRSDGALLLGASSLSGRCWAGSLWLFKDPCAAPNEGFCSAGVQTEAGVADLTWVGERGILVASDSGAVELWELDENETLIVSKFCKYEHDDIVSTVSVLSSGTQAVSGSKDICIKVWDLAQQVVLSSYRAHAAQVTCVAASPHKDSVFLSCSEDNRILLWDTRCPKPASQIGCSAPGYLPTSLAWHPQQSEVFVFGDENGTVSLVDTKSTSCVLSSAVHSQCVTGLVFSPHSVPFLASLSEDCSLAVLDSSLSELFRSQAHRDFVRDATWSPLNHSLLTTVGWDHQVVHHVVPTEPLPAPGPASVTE

SMILES | IC50 [nM]
CN1CCN(c2cccc(OCC(=O)NC[C@@H](O)CN3CCc4ccccc4C3)c2)CC1 [Compound 190] | < 100
O=C(COc1cccc2c1CCNC2)NCC(O)CN1CCc2ccccc2C1 (stereo not shown) [Compound 91] | < 100
CN1CC[C@@H](CN(C)S(=O)(=O)c2ccccc2OCC(=O)NC[C@@H](O)CN2CCc3ccccc3C2)C1 [Compound 272] | < 100
O=C(NC[C@H](O)CN1CCc2ccccc2C1)C1CNc2ccccc21 (stereo partly shown) [Compound 177] | 101 to 1000
O=C(CC1CCc2ccccc21)NC[C@H](O)CN1CCc2ccccc2C1 (stereo partly shown) [Compound 178] | 101 to 1000
Cc1nn(C)c2cccc(OCC(=O)NCC(O)CN3CCc4ccccc4C3)c12 (stereo not shown) [Compound 158] | < 100
O=C(COc1ccccc1S(=O)(=O)N1CCNCC1)NCC(O)CN1CCc2ccccc2C1 (stereo not shown) [Compound 107] | < 100
O=C(Cc1ccc2c(c1)OCO2)NC[C@H](O)CN1CCc2ccccc2C1 [Compound 174] | 101 to 1000
O=C(COC1CCOC1)NCC(O)CN1CCc2ccccc2C1 (stereo not shown) [Compound 171] | 1000 to 10000
O=C(COc1cccc2cncnc12)NCC(O)CN1CCc2ccccc2C1 (stereo not shown) [Compound 181] | < 100
CN(C)c1ccccc1OCC(=O)NCC(O)CN1CCc2ccccc2C1 (stereo not shown) [Compound 38] | < 100
O=C(COc1ccccc1S(=O)(=O)N1CCC(O)C1)NCC(O)CN1CCc2ccccc2C1 (stereo not shown) [Compound 111] | < 100
O=C(COc1ccc2c(cnn2C2CCNC2)c1)NCC(O)CN1CCc2ccccc2C1 (stereo not shown) [Compound 95] | < 100
O=C(COc1cccc(CN2CCOCC2)c1)NCC(O)CN1CCc2ccccc2C1 (stereo not shown) [Compound 75] | < 100
O=C(COc1ccccc1N1CCOCC1)NC[C@H](O)CN1CCc2ccccc2C1 [Compound 77] | < 100
O=C(COCCN1CCOCC1)NCC(O)CN1CCc2ccccc2C1 (stereo not shown) [Compound 167] | 1000 to 10000
O=C(COc1ccccc1S(=O)(=O)N1CCCC1)NCC(O)CN1CCc2ccccc2C1 (stereo not shown) [Compound 110] | < 100

SMILES | IC50 [nM]
Cc1cn(C)c2cccc(OCC(=O)NC[C@H](O)CN3CCc4ccccc4C3)c12 [Compound 163] | < 100
O=C(COc1cncc(CN2CCOCC2)c1)NCC(O)CN1CCc2ccccc2C1 (stereo not shown) [Compound 172] | 101 to 1000
O=C(NC[C@H](O)CN1CCc2ccccc2C1)[C@@H]1C[C@@H]2CCCC[C@@H]2N1 [Compound 184] | 1000 to 10000
CC(O)(C(=O)NCC(O)CN1CCc2ccccc2C1)c1ccccc1 (stereo not shown) [Compound 173] | 1000 to 10000
Cc1cn(C)c2cccc(OCC(=O)NC[C@@H](O)CN3CCc4ccccc4C3)c12 [Compound 164] | < 100
CC(Oc1ccccc1)C(=O)NCC(O)CN1CCc2ccccc2C1 (stereo not shown) [Compound 19, N-(3-(3,4-dihydroisoquinolin-2(1H)-yl)-2-hydroxypropyl)-2-phenoxypropanamide] | < 100
Cc1cn(C)c2cccc(OCC(=O)NCC(O)CN3CCc4ccccc4C3)c12 (stereo not shown) [Compound 146] | < 100
CN1CCOc2cccc(OCC(=O)NCC(O)CN3CCc4ccccc4C3)c21 (stereo not shown) [Compound 81] | < 100
CN1CCCC(c2ccccc2OCC(=O)NCC(O)CN2CCc3ccccc3C2)C1 (stereo not shown) [Compound 130] | < 100
Cc1cccc(OCC(=O)NCC(O)CN2CCc3ccccc3C2)c1 (stereo not shown) [Compound 26] | < 100
CN1CCN(c2ccccc2OCC(=O)NC[C@H](O)CN2CCc3ccccc3C2)CC1 [Compound 84] | < 100
O=C(COc1ccccc1C1CCCCC1)NCC(O)CN1CCc2ccccc2C1 (stereo not shown) [Compound 40] | < 100
O=C(COc1ccccc1-c1cc[nH]n1)NC[C@H](O)CN1CCc2ccccc2C1 [Compound 68] | < 100
O=C(CCc1nc2ccccc2s1)NC[C@@H](O)CN1CCc2ccccc2C1 [Compound 193] | 1000 to 10000
CN(C)c1cccc(OCC(=O)NCC(O)CN2CCc3ccccc3C2)c1 (stereo not shown) [Compound 27] | < 100
Nc1ncnc2c(OCC(=O)NCC(O)CN3CCc4ccccc4C3)cccc12 (stereo not shown) [Compound 168] | < 100
C[C@@H](Oc1cccc2cccnc12)C(=O)NC[C@@H](O)CN1CCc2ccccc2C1 [Compound 74] | < 100
